Like-named read-outs stand apart in the source and are kept apart here.
Key:
PIM1 = PIM1 (Homo sapiens (Human), UniProt P11309); experiment: Pim kinase inhibition, PIM1 LC3K (Example 901); format: biochemical
Excerpt: Determination of the Pim kinase activity of a Formula I compound is possible by a number of direct and indirect detection methods.

BaF3 parental cells = experiment: In vitro cell proliferation, BaF3 parental line + IL3 (CellTiter-Glo); format: cell-based, murine; details: read-out: Prolif BaF3 + IL3 (IC50)
BaF3 PIM1 cells [1] = details: read-out: Prolif BaF3_PIM1 (IC50), incubated overnight
[2] = tested on: MM1.S (multiple myeloma) cells; experiment: In vitro cell proliferation, MM1.S multiple myeloma cells (CellTiter-Glo, ATP); format: cell-based; details: read-out: Prolif MM1S ATP (EC50)
Summary of the method: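 BaF3 parental cells (medium with 2 ng/mL mIL-3) seeded at 2 k/well and MM1.S at 10 k/well, then exposed to test compound at 37° C, 5% CO2: BaF3 overnight, MM1.S for 72 hours. Viability read by CellTiter-Glo; IC50/EC50 values calculated.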

BaF3 PIM1 cells [3] = experiment: cells; details: Mus musculus, BaF3, read-out: Prolif BaF3_PIM1 (IC50), BaF3 PIM1 cells, incubated overnight
[4] = Mus musculus, BaF3, BaF3 parental cells with IL-3, incubated overnight

Chain of PIM1 (P11309 whole entry): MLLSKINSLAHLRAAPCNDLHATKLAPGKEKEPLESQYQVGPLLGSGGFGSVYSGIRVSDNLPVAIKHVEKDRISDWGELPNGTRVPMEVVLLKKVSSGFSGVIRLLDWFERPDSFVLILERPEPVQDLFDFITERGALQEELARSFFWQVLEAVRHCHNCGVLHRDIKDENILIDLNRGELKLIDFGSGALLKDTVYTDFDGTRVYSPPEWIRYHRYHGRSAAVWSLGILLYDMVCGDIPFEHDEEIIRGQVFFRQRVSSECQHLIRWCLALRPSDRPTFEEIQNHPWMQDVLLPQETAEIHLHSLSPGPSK

Structure (SMILES)	Ki (PIM1)	IC50 (BaF3 PIM1 cells [1])	EC50 ([2]; 72 hours)	IC50 (BaF3 PIM1 cells [3])	EC50 ([2]; Homo sapiens, MM1.S, 72 h)	IC50 (BaF3 parental cells; [4])	IC50 (BaF3 parental cells; BaF3 parental cells with IL-3, incubated overnight)
Cn1ncc(NC(=O)c2nc(-c3ccncc3F)sc2N)c1N1CC[C@H](N)[C@@H](F)CC1 [Example 422, 5-amino-N-(5-((4S,5S)-4-amino-5-fluoroazepan-1-yl)-1-methyl-1H-pyrazol-4-yl)-2-(3-fluoropyridin-4-yl)thiazole-4-carboxamide]	0.38 nM			340 nM	3800 nM	> 25000 nM	
Cn1ncc(NC(=O)c2nc(-c3ccncc3F)sc2N)c1N1CC[C@@H](N)CC(F)(F)C1 [Example 447, 5-amino-N-[5-[(5R)-5-amino-3,3-difluoro-azepan-1-yl]-1-methyl-pyrazol-4-yl]-2-(3-fluoro-4-pyridyl)thiazole-4-carboxamide]	0.014 nM			6.97 nM	571 nM	12900 nM	
Cn1ncc(NC(=O)c2nc(-c3c(F)cncc3F)sc2N)c1N1CC[C@@H](N)CC(F)(F)C1 [Example 455, 5-amino-N-[5-[(5R)-5-amino-3,3-difluoro-azepan-1-yl]-1-methyl-pyrazol-4-yl]-2-(3,5-difluoro-4-pyridyl)thiazole-4-carboxamide]	0.009 nM			2.57 nM	221 nM	3900 nM	
COc1cc(F)c(-c2nc(C(=O)Nc3cnn(C)c3N3CCC(N)CC(F)(F)C3)c(N)s2)c(F)c1 (stereo not drawn) [Example 459, 5-amino-N-[5-(5-amino-3,3-difluoro-azepan-1-yl)-1-methyl-pyrazol-4-yl]-2-(2,6-difluoro-4-methoxy-phenyl)thiazole-4-carboxamide]	0.006 nM			6.84 nM	492 nM	7500 nM	
Cc1c(-c2nc(C(=O)Nc3cnn(C)c3N3CCC(N)CC(F)(F)C3)c(N)s2)cnn1C (stereo not drawn) [Example 460, 5-amino-N-[5-(5-amino-3,3-difluoro-azepan-1-yl)-1-methyl-pyrazol-4-yl]-2-(1,5-dimethylpyrazol-4-yl)thiazole-4-carboxamide]	0.026 nM			36.4 nM	215 nM	> 25000 nM	
Cc1c(-c2nc(C(=O)Nc3cnn(C)c3N3CC[C@@H](N)CC(F)(F)C3)c(N)s2)cnn1C [Example 463, 5-amino-N-[5-[(5R)-5-amino-3,3-difluoro-azepan-1-yl]-1-methyl-pyrazol-4-yl]-2-(1,5-dimethylpyrazol-4-yl)thiazole-4-carboxamide]	0.018 nM			58.4 nM	108 nM	> 25000 nM	
COC1(C)CC(N)CCN(c2c(NC(=O)c3nc(-c4ccncc4F)sc3N)cnn2C)C1 (stereo not drawn) [Example 476, 5-amino-N-[5-(5-amino-3-methoxy-3-methyl-azepan-1-yl)-1-methyl-pyrazol-4-yl]-2-(3-fluoro-4-pyridyl)thiazole-4-carboxamide]	0.013 nM			24.5 nM	872 nM	25000 nM	
[2H]C([2H])([2H])OC1CCN(c2c(NC(=O)c3nc(-c4ccccc4F)sc3N)cnn2C)CCC1N (stereo not drawn) [Example 491, 5-amino-N-[5-[4-amino-5-(trideuteriomethoxy)azepan-1-yl]-1-methyl-pyrazol-4-yl]-2-(2-fluorophenyl)thiazole-4-carboxamide]	0.055 nM			44.9 nM	67.9 nM	> 25000 nM	

More lines, main results first:

Ki (PIM1)	IC50 (BaF3 PIM1 cells [1])	EC50 ([2]; 72 hours)	IC50 (BaF3 PIM1 cells [3])	EC50 ([2]; Homo sapiens, MM1.S, 72 h)	Structure (SMILES)	IC50 (BaF3 parental cells; [4])	IC50 (BaF3 parental cells; BaF3 parental cells with IL-3, incubated overnight)
0.133 nM	284 nM	404 nM			CCn1ncc(NC(=O)c2nc(-c3c(F)cccc3F)sc2N)c1N1CCC(N)C(OC)CC1 (single isomer, unassigned) [Example 406, 5-amino-N-[5-(4-amino-5-methoxy-azepan-1-yl)-1-ethyl-pyrazol-4-yl]-2-(2,6-difluorophenyl)thiazole-4-carboxamide]	12000 nM	
0.204 nM	795 nM	3500 nM			CCn1ncc(NC(=O)c2nc(-c3c(F)cccc3F)sc2N)c1N1CCC(N)C(OC)CC1 (single isomer, unassigned) [Example 407, 5-amino-N-[5-(4-amino-5-methoxy-azepan-1-yl)-1-ethyl-pyrazol-4-yl]-2-(2,6-difluorophenyl)thiazole-4-carboxamide]		9800 nM
0.08 nM			39.7 nM	211 nM	Cn1ncc(NC(=O)c2nc(-c3cccc(C#N)n3)sc2N)c1N1CC[C@@H](N)CC(F)(F)C1 [Example 461, 5-amino-N-[5-[(5R)-5-amino-3,3-difluoro-azepan-1-yl]-1-methyl-pyrazol-4-yl]-2-(6-cyano-2-pyridyl)thiazole-4-carboxamide]	16600 nM	
0.03 nM			32.6 nM	1200 nM	Cc1nn(C)cc1-c1nc(C(=O)Nc2cnn(C)c2N2CC[C@@H](N)CC(F)(F)C2)c(N)s1 [Example 462, 5-amino-N-[5-[(5R)-5-amino-3,3-difluoro-azepan-1-yl]-1-methyl-pyrazol-4-yl]-2-(1,3-dimethylpyrazol-4-yl)thiazole-4-carboxamide]	8000 nM	
0.06 nM			11.9 nM	467 nM	Cc1cc(-c2nc(C(=O)Nc3cnn(C)c3N3CC[C@@H](N)CC(F)(F)C3)c(N)s2)ccn1 [Example 464, 5-amino-N-[5-[(5R)-5-amino-3,3-difluoro-azepan-1-yl]-1-methyl-pyrazol-4-yl]-2-(2-methyl-4-pyridyl)thiazole-4-carboxamide]	15900 nM	
0.009 nM			41.1 nM	248 nM	COC1(C)CC(N)CCN(c2c(NC(=O)c3nc(-c4c(F)cncc4F)sc3N)cnn2C)C1 (stereo not drawn) [Example 473, 5-amino-N-[5-(5-amino-3-methoxy-3-methyl-azepan-1-yl)-1-methyl-pyrazol-4-yl]-2-(3,5-difluoro-4-pyridyl)thiazole-4-carboxamide]	25000 nM	
0.095 nM			623 nM	5600 nM	Cn1ncc(NC(=O)c2nc(-c3c(F)cccc3F)sc2N)c1N1CCC(N)C2(CCO2)CC1 (stereo not drawn) [Example 510, 5-amino-N-[5-(5-amino-1-oxa-8-azaspiro[3.6]decan-8-yl)-1-methyl-pyrazol-4-yl]-2-(2,6-difluorophenyl)thiazole-4-carboxamide]	22000 nM	
